Laboratory results taken from article PMC7301697 (Journal of Enzyme Inhibition and Medicinal Chemistry, 2020).

How the values were obtained:
[1] = biological target: T1, Polyphosphate kinase 1 (PPK1) (Escherichia coli, UniProt P0A7B1); experiment: SPR; format: binding
T1 sequence (P0A7B1 2-688): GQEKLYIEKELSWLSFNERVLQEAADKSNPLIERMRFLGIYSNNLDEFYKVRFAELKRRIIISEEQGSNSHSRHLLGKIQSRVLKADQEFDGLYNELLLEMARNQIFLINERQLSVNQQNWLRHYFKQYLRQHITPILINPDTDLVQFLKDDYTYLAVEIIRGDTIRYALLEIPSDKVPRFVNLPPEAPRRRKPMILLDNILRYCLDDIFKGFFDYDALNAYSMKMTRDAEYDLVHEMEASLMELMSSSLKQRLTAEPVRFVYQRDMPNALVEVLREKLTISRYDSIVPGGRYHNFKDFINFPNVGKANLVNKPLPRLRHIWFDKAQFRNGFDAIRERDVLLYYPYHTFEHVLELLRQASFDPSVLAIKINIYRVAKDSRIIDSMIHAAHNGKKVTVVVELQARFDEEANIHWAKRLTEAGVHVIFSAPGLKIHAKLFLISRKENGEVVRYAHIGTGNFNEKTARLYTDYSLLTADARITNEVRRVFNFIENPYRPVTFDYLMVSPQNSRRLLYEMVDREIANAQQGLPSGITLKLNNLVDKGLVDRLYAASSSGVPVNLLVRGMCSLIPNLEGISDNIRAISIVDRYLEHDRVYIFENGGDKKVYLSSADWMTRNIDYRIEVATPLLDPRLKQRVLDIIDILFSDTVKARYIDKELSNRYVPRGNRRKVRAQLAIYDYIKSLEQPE

[2] = biological target: T1, Polyphosphate kinase 1 (PPK1); experiment: SPR single-concentration response at […]; format: binding

Row | Structure (SMILES) | Kd [1] | SPR single-concentration response at 100 μM (positive control) [2]
1 | O=[N+]([O-])c1ccc2nc(-c3ccc(Cl)cc3)[nH]c2c1 [compound 8, 8] | 85.8 µM | –
2 | Cc1ccc(C(=O)Nc2ccc(Cl)cc2)cc1C(F)(F)F [compound 17, 17] | 84.6 µM | –
3 | COc1cc([C@@H]2c3cc4c(cc3[C@@H](O[C@@H]3O[C@@H]5CO[C@@H](C)O[C@H]5[C@H](O)[C@H]3O)[C@H]3COC(=O)[C@H]23)OCO4)cc(OC)c1O [Etoposide] | – | 3.06 100RU/Da
